We go through 16 molecules from article PMC9386001, “Identification of naturally occurring inhibitors in Xian-Ling-Gu-Bao capsule against the glucuronidation of estrogens” (Frontiers in Pharmacology, 2022).

One series addresses T1, UGT2B7 (Homo sapiens, UniProt P16662).
T1 sequence (P16662 24-529): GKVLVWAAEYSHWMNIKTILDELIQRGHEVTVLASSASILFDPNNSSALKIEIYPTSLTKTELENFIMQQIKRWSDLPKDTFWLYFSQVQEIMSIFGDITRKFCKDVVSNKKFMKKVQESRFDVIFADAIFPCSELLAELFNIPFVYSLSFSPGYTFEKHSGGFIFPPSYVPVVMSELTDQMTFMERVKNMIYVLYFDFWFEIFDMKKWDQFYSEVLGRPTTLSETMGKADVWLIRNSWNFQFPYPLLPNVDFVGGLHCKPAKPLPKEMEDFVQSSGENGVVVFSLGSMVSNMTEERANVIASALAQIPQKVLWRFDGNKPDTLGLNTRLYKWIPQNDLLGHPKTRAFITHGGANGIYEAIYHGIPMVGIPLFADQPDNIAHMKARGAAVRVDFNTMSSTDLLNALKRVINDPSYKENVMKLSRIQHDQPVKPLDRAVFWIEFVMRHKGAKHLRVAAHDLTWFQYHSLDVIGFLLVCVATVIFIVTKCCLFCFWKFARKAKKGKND
Briefly: Inhibition of UGT2B7 (zidovudine-N-glucuronidation). The conditions noted are these: for Inhibitory type: best model by smallest AIC and SC; for activity at 10 µM: human, probe zidovudine (AZT). On the procedure:
(§1) The final volume of solvent in incubations was 1%. In addition, emodin, atazanavir, and diclofenac were considered as positive controls for UGT1A10, UGT1A1, and UGT2B7, respectively.
(§2) Competitive inhibition, non-competitive inhibition, and mixed-type inhibition models were used to estimate the Ki values by nonlinear regression based on Eqs 6–8, respectively.

For the next series, the target named is T2, UGT1A10 (Homo sapiens, UniProt Q9HAW8).
T2 sequence (Q9HAW8 26-530): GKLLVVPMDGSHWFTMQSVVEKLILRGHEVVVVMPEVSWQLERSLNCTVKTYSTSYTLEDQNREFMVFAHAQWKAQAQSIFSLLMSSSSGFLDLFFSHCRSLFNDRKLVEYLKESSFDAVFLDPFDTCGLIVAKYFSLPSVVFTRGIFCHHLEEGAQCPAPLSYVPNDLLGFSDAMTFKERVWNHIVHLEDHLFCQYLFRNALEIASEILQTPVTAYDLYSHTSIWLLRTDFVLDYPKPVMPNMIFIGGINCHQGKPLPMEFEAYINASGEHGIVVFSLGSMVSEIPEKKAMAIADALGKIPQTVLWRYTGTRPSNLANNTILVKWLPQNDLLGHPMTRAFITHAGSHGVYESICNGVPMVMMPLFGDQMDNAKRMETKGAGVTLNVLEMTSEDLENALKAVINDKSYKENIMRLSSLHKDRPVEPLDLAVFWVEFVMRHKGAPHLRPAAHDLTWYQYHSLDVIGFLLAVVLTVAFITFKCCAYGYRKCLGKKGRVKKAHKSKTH
In words: Inhibition of UGT1A10 (4-methylumbelliferone-O-glucuronidation). The conditions noted are these: for Inhibitory type: best model by smallest AIC and SC; for activity at 10 µM: human, expressed human UGT1A10 enzyme, probe 4-methylumbelliferone (4-MU). Here is the method: as §1, §2

The next series concerns the target T3, UGT1A1 (Homo sapiens, UniProt P22309).
T3 sequence (P22309 26-533): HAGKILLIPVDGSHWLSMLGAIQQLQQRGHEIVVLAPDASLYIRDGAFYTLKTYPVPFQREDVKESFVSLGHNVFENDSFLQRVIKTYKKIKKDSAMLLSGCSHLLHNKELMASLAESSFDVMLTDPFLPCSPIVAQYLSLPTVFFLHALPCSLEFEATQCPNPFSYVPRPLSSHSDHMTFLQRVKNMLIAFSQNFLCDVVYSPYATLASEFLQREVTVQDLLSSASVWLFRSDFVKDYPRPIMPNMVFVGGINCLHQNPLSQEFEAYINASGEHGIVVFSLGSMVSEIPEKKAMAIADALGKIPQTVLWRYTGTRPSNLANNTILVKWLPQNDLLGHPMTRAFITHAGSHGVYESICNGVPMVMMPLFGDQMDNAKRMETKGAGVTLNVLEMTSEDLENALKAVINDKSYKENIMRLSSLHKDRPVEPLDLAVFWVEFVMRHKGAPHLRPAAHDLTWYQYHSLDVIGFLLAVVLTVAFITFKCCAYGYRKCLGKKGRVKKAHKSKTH
In words: Inhibition of UGT1A1 (β-estradiol-3-O-glucuronidation). The following applies: for Inhibitory type: best model by smallest AIC and SC; for activity at 10 µM: human. Here is the method: as §1, §2

Substrate in series [1]: C[C@]12CC[C@@H]3c4ccc(O)cc4CC[C@H]3[C@@H]1C[C@@H](O)[C@@H]2O
In words: cells, lysate or membranes named. The conditions noted are these: other: UGT2B7; 16-O-glucuronide formation; pH 7.4; 37.0 °C.

Setting [2] is: human UGT1A1 enzyme, probe β-estradiol (E2).
The mark [3] stands for this setting: UGT2B7 enzyme (optimized UGT2B7 incubation system).

In general, IC50 refers to the concentration that inhibits the measured activity by half. A word on the Ki: it is a measure of affinity in units of concentration, obtained from inhibition or displacement. A low value points to tighter binding. In general, Vmax refers to the rate approached at saturating substrate.

Where two headings read alike, the source gives them in different places.

For the molecule bavachinin, the “residual activity (Figures 3G–I, UGT2B7)” value on UGT2B7 (10 μM, % of negative control) came to 13.23%. For the same molecule, the Inhibitory type result at UGT2B7 (UGT2B7) and on UGT1A10 (UGT1A10) was “Competitive” throughout. Also, the half-inhibitory concentration (IC50) on UGT2B7 (UGT2B7, substrate AZT) was found to be 2270 ± 260 nM; against UGT1A10 (UGT1A10, substrate 4-MU), 5420 ± 640 nM. The Ki on UGT2B7 (UGT2B7, substrate AZT) was 1110 ± 170 nM; on UGT1A10 (UGT1A10, substrate 4-MU), 3290 ± 230 nM. Further, the “residual activity of UGT1A10” value at UGT1A10 (10 μM, % of negative control) worked out at 37.70%.
At UGT1A1, `CC(C)=CCc1cc2c(cc1O)oc(=O)c1c3ccc(O)cc3oc21` [Psoralidin, psoralidin] registered an IC50 of 1950 ± 150 nM and a Ki of 980 ± 230 nM. Besides, at UGT1A1 (UGT1A1), the Inhibitory type result was “Non-competitive”. For the same molecule, the activity at 10 µM at UGT1A1 (setting [2]) was determined as 1.48%.
Turning to `CC(C)=CCc1cc(-c2coc3cc(O)ccc3c2=O)ccc1O` [Neobavaisoflavone, neobavaisoflavone], the IC50 against UGT2B7 worked out at 1170 ± 100 nM; at UGT1A10, 3990 ± 670 nM; against UGT1A1, 2860 ± 140 nM. Besides, the figures for the inhibition constant Ki at UGT2B7, on UGT1A10 and on UGT1A1 were 390 ± 30 nM, 2600 ± 230 nM and 780 ± 160 nM, respectively. For the same molecule, the figures for the Inhibitory type result at UGT2B7 (UGT2B7), on UGT1A10 (UGT1A10) and at UGT1A1 (UGT1A1) were “Mixed type”, “Competitive” and “Non-competitive”, respectively. In addition, the α on UGT2B7 (UGT2B7, mixed-type inhibition model, αKi) was determined as 5.15 ± 2.08. Also, the figures for the activity at 10 µM on UGT2B7 (setting [3]), on UGT1A10 and at UGT1A1 (setting [2]) were 10.2%, 31.1% and 7.42%, respectively.
In the case of `O=C(O)Cc1ccccc1Nc1c(Cl)cccc1Cl` [diclofenac, reference compound], on UGT2B7 (expressed human UGT2B7 enzyme), the activity at 10 µM amounted to 53.9%.
Take `CC(C)=CCc1c(O)ccc2c1O[C@H](c1ccc(O)cc1)CC2=O` [Isobavachin, isobavachin]: the IC50 on UGT2B7 was 110 ± 10 nM; on UGT1A10, 3620 ± 360 nM; against UGT1A1 it was 1730 ± 110 nM. Also, the Inhibitory type result is “Competitive” at UGT2B7 (UGT2B7), “Non-competitive” at UGT1A10 (UGT1A10) and “Competitive” at UGT1A1 (UGT1A1). Also, the inhibition constant Ki on UGT2B7 (UGT2B7, substrate AZT) came out at 20 ± 10 nM; at UGT1A10, 1810 ± 280 nM; on UGT1A1 (UGT1A1, substrate E2) it was 3350 ± 530 nM. Also, the activity at 10 µM is 0% at UGT2B7 (setting [3]), 20.4% on UGT1A10 and 4.58% at UGT1A1 (setting [2]).
On to `CC(C)=CCc1cc(C(=O)/C=C/c2ccc(O)cc2)c(O)cc1O` [Bavachalcone, bavachalcone], for which the figures for the IC50 at UGT2B7 and at UGT1A1 were 4650 ± 520 nM and 530 ± 70 nM, respectively. Further, the Ki worked out at 1870 ± 200 nM on UGT2B7 and 1100 ± 80 nM on UGT1A1. In addition, the values for the Inhibitory type result on UGT2B7 (UGT2B7) and on UGT1A1 (UGT1A1) were “Competitive” and “Non-competitive”, respectively. The activity at 10 µM worked out at 27.2% at UGT2B7 (setting [3]) and 13% on UGT1A1 (setting [2]).
At UGT1A1, `COc1ccc(-c2oc3c(CC=C(C)C)c(O)cc(O)c3c(=O)c2O)cc1` [Icaritin, icaritin] showed an IC50 of 1280 ± 260 nM and an inhibition constant (Ki) of 420 ± 170 nM. Moreover, the Inhibitory type entry on UGT1A1 (UGT1A1) was “Non-competitive”. The molecule also showed an activity at 10 µM at UGT1A1 (setting [2]) of 10.2%.
With icariside II, the Inhibitory type result at UGT2B7 (UGT2B7), at UGT1A10 (UGT1A10) and at UGT1A1 (UGT1A1) was “Competitive” in each case.
Take `COC(=O)N[C@H](C(=O)N[C@@H](Cc1ccccc1)[C@@H](O)CN(Cc1ccc(-c2ccccn2)cc1)NC(=O)[C@@H](NC(=O)OC)C(C)(C)C)C(C)(C)C` [atazanavir, reference compound]: at UGT1A1 (expressed human UGT1A1 enzyme, probe β-estradiol (E2)), the activity at 10 µM turned out to be 4.38%.
Consider `Cc1cc(O)c2c(c1)C(=O)c1cc(O)cc(O)c1C2=O` [emodin, reference compound], for which the activity at 10 µM on UGT1A10 was 52.4%.
On UGT1A1, `O=C(C=Cc1ccc(O)c2c1C(C(=O)OC(Cc1ccc(O)c(O)c1)C(=O)O)C(c1ccc(O)c(O)c1)O2)OC(Cc1ccc(O)c(O)c1)C(=O)O` (stereo not shown) [Salvianolic acid B, salvianolic acid B] registered a concentration for half-maximal inhibition (IC50) of 3780 ± 530 nM, a Ki of 2160 ± 210 nM and an activity at 10 µM of 36.2%. For the same molecule, the Inhibitory type entry at UGT1A1 (UGT1A1) is “Competitive”.
For the molecule `CC(C)=CCc1c(O)ccc(C(=O)/C=C/c2ccc(O)cc2)c1O` [Isobavachalcone, isobavachalcone], the half-inhibitory concentration (IC50) against UGT2B7 came to 1380 ± 220 nM; on UGT1A10, 2800 ± 300 nM; on UGT1A1, 1650 ± 150 nM. Besides, the results for the Ki on UGT2B7, on UGT1A10 and at UGT1A1 were 300 ± 70 nM, 1660 ± 190 nM and 1200 ± 120 nM, respectively. Also, the Inhibitory type entry is listed as “Competitive” at UGT2B7 (UGT2B7), “Non-competitive” at UGT1A10 (UGT1A10) and “Non-competitive” on UGT1A1 (UGT1A1). Further, the activity at 10 µM at UGT2B7 (setting [3]) is 0%; on UGT1A10, 8.61%; at UGT1A1 (setting [2]), 3.97%.
Regarding `C=C[C@@](C)(/C=C/c1ccc(O)cc1)CCC=C(C)C` [Bakuchiol, bakuchiol], at UGT2B7, the half-inhibitory concentration (IC50) is 4550 ± 430 nM. Further, the Inhibitory type result on UGT2B7 (UGT2B7) is listed as “Competitive”. The molecule further had an activity at 10 µM at UGT2B7 (setting [3]) of 35.5%.
As to `COc1ccc(-c2oc3c(CC=C(C)C)c(O[C@@H]4O[C@H](CO)[C@@H](O)[C@H](O)[C@H]4O)cc(O)c3c(=O)c2O)cc1` [Icariside I, icariside I], the values for the half-maximal inhibitory concentration (IC50) on UGT1A10 and against UGT1A1 were 1390 ± 330 nM and 3280 ± 1200 nM, respectively. Moreover, the Ki at UGT1A10 came out at 1920 ± 260 nM; at UGT1A1, 6010 ± 470 nM. Also, the Inhibitory type entry is on record as “Competitive” on UGT1A10 (UGT1A10) and “Non-competitive” on UGT1A1 (UGT1A1). The values for the activity at 10 µM at UGT1A10 and on UGT1A1 (setting [2]) were 26.5% and 35.5%, respectively.
On to `COc1ccc(-c2oc3c(CC=C(C)C)c(O[C@@H]4O[C@H](CO)[C@@H](O)[C@H](O)[C@H]4O)cc(O)c3c(=O)c2O[C@@H]2O[C@@H](C)[C@H](O)[C@@H](O)[C@H]2O)cc1` [Icariin, icariin], for which, at UGT1A10, it took 5940 ± 1240 nM to reach half-maximal inhibition (IC50), the Ki was 9770 ± 820 nM and the activity at 10 µM was found to be 37.3%.

B1: UGT2B7 (Homo sapiens) (protein)
chain: T1 sequence (P16662 24-529)
In the case of B1, in series [1], the K0.5 turned out to be 9.92 ± 0.69 µM, the maximum rate (Vmax) was determined as 0.00788 µmol/min/mg and the Vmax/Km worked out at 794 µL/min/mg.
